We go through three molecules from patent publication US4978761A, “5-hydroxy-2-substituted-2,4,6,7-tetramethyl-2,3-dihydrobenzofurans” (Takeda Chemical Industries, Ltd., priority 1988, dated 1990).

In general, inhibition refers to the percentage by which the read-out fell short of the control.

Assay [1] deals with T1, 12-Lipoxygenase (Rattus norvegicus, UniProt F1LQ70).
T1 construct: from tissue; host or cells: Wistar rat platelets (PRP mixed with PPP, from citrated aortic blood)
T1 sequence (F1LQ70 1-663): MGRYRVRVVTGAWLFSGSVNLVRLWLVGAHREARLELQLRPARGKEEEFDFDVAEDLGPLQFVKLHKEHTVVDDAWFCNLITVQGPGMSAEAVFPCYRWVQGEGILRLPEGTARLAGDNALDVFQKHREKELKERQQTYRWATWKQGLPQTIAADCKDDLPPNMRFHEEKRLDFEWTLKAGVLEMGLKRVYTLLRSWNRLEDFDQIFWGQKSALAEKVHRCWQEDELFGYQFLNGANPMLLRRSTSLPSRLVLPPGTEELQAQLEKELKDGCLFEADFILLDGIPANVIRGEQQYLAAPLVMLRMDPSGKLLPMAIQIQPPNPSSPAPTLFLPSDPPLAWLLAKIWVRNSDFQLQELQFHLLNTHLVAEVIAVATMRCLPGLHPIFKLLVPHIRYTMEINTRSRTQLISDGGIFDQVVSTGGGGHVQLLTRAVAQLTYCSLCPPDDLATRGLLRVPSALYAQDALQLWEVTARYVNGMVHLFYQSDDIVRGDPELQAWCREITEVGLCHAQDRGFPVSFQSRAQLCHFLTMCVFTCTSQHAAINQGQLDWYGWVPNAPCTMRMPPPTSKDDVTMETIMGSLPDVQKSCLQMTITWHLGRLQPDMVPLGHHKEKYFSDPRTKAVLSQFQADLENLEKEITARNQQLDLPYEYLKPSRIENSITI
Kind of assay: 12-Lipoxygenase inhibitory action: 12-HETE production in Wistar rat platelets (HPLC). In kind it is cell-based. Conditions: read-out: 12-Lipoxygenase Inhibitory Action, % Inhibition (IE); for inhibition at 100 µM: 10^-4 M; for inhibition at 10 µM: 10^-5 M; for inhibition at 1 µM: 10^-6 M; for inhibition at 0.1 µM: 10^-7 M. The procedure:
Through the descending aorta of a Wistar rat, 10 ml of blood was collected, under anesthesia, together with citric acid of a volume corresponding to 10%. PRP and PPP were respectively prepared, then they were mixed to make the number of platelets to be 10^9 /ml. To 2.5 μl each of the test solutions prepared in advance (final concentrations of the test compounds : 100 μm, 10 μm, 1 μm and 0.1 μm) was added 0.225 ml of the platelet solution. The respective solutions were kept at 37° C. for 5 minutes, to which was added 25 μl each of arachidonic acid solution (50 μg/ml) , then the respective mixtures were shaken immediately. The reaction was allowed to proceed at 37° C. for 15 minutes, and there was added ethanol (1 ml) to stop the reaction. The reaction mixture was subjected to a centrifuge (2000 rpm) for 5 minutes. One ml of the supernatant was taken, which was mixed with 1 ml of water. 100 μl of this mixture solution was subjected to high performance liquid chromatography to quantitatively determine 12-HETE. The detection was conducted at 240 nm. The calculation of the inhibition rate was conducted in a manner as in the case of 5-HETE.

Assay [2] concerns the target T2, 5-Lipoxygenase (Rattus norvegicus, UniProt P12527).
T2 construct: endogenous in cells; host or cells: RBL-1 (rat basophilic leukemia) cells
T2 sequence (P12527 1-673): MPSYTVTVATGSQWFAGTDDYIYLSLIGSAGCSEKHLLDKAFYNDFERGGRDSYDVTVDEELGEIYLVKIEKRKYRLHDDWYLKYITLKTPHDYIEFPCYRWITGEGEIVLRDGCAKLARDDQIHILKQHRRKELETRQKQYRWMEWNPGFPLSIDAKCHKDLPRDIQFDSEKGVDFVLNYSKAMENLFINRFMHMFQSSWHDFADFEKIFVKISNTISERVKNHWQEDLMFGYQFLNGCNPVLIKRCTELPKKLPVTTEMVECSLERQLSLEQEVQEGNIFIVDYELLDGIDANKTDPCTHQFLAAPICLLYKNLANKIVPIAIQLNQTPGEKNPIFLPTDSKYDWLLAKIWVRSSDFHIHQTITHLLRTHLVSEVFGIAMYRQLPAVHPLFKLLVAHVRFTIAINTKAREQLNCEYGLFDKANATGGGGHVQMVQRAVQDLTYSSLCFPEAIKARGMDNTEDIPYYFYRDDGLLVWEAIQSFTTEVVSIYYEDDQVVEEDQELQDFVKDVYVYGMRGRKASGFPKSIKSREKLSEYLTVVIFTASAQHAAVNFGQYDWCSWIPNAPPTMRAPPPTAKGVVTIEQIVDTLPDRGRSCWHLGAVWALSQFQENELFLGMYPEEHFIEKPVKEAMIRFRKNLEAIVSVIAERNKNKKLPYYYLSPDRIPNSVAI
Put plainly: 5-Lipoxygenase inhibiting action: 5-HETE production in rat basophilic leukemia (RBL-1) cells (HPLC). As to conditions: read-out: Effect of Inhibiting 5-Lipoxygenase, % Inhibition (IE); for inhibition at 10 µM: 10^-5 M; for inhibition at 1 µM: 10^-6 M; for inhibition at 0.1 µM: 10^-7 M; for inhibition at 0.01 µM: 10^-8 M. In kind it is cell-based. The procedure: In 0.5 ml of MCM (mast cell medium) was suspended 10^7 of rat basophilic leukemia (RBL-1) cells. To this suspension was added the test solution previously prepared [consisting of 0.5 ml of MCM, 50 μg of arachidonic acid, 10 μg of calcium ionophore A-23187 and the test compound (final concentrations 10 μm, 1 μm, 0.1 μm and 0.01 μm)], and the reaction was allowed to proceed at 37° C. for 20 minutes. To the reaction mixture was added 4 ml of ethanol, which was shaken sufficiently, followed by leaving the resultant mixture standing for 10 minutes at room temperatures. The resultant mixture was subjected to a centrifuge (2000 rpm) for 10 minutes, then the supernatant was separated. Thus-separated supernatant was concentrated to dryness under reduced pressure. To the concentrate was added 0.5 ml of a 60% aqueous methanol. A 100μl Portion of this solution was taken and subjected to high performance liquid chromatography to perform quantitative determination of 5-HETE (5-hydroxyeicosatetraenoic acid). UV absorption of 5-HETE at 237 nm was measured with a UV absorption monitor. The inhibitory effect (IE) of 5-HETE is expressed by (1-b/a)×100. In this formula, a means the height of the peak or the area of the peak in the case of presence of no compound (I), while b means the height of the peak or the area of the peak in the case of presence of the compound (I).

Consider `Cc1c(C)c2c(c(C)c1O)CC(C)(CBr)O2` (centres unmarked) [Compound 6], for which, in assay [1], the inhibition at 100 µM is 98%, the inhibition at 10 µM came out at 88%, the inhibition at 1 µM turned out to be 16% and the inhibition at 0.1 µM worked out at 2%. In assay [2], the inhibition at 10 µM worked out at 100%, the inhibition at 1 µM was 100%, the inhibition at 0.1 µM is 52% and the inhibition at 0.01 µM was 4%.

Regarding `Cc1c(C)c2c(c(C)c1O)CC(C)(C=Cc1ccccc1)O2` (centres unmarked) [Compound 10], in assay [1], the inhibition at 100 µM was found to be 96%, the inhibition at 10 µM was 92%, the inhibition at 1 µM is 52% and the inhibition at 0.1 µM turned out to be 45%. In assay [2], the inhibition at 10 µM turned out to be 100%, the inhibition at 1 µM came to 99%, the inhibition at 0.1 µM is 98% and the inhibition at 0.01 µM is 12%.

Regarding `Cc1c(C)c2c(c(C)c1O)CC(C)(CCc1ccccc1)O2` (centres unmarked) [Compound 12], in assay [1], the inhibition at 100 µM came to 95%, the inhibition at 10 µM amounted to 82% and the inhibition at 1 µM is 11%. Further, in assay [2], the inhibition at 10 µM is 100%, the inhibition at 1 µM worked out at 100%, the inhibition at 0.1 µM came out at 90% and the inhibition at 0.01 µM is 46%.
